Results on eleven compounds are retold here after ChEMBL document CHEMBL1201862, “PubChem BioAssay data set” (2004).

Among the test systems are KM12; HOP-62; T47D; COLO 205; SK-MEL-5; SK-OV-3; LOX IMVI; HT-29; HOP-92; SF-295; RXF 393; UACC-62; Hs-578T; M14; NCI-H460; A549; HCT-15; K562; SW-620; BT-549.
Assay in all cases: NCI tumour cell line growth inhibition, 48 h

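Dose response: 5 concentrations. Exposure: 48 h. Format: 96-well plates. Endpoint: linear interpolation; highest concentration if not reached. Abbreviation: GI50, concentration required for 50% inhibition of growth.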 Active and inactive are the calls of the source. Rule as the data show it: active = GI50 up to about 1.1 µM and inactive = higher. Bounds are passed on as bounds.

On to `C=C1C2CC3CCC2C(OC(=O)c2ccccc2C(=O)O)C13` (stereo not drawn), for which the GI50 with KM12, in the test on HOP-62, in the test with T47D, with COLO 205, with SK-MEL-5 and in the test on SK-OV-3 was > 100 µM (inactive) throughout. Also, the GI50 in the test with LOX IMVI, in the test with HT-29, with HOP-92, with SF-295, with RXF 393 and in the test on UACC-62 was > 100 µM (inactive) in each case. Further, the GI50 in the test on Hs-578T is > 100 µM (inactive); in the test on M14, > 100 µM (inactive); in the test with NCI-H460, > 100 µM (inactive); with A549 it was > 100 µM (inactive); in the test on HCT-15 it was more than 100 µM; in the test on K562 it was > 100 µM (inactive). For the same compound, in the test with SW-620, the GI50 was > 100 µM (inactive).
For the compound `O=c1c2ccccc2sc2cccc(NCCCN3CCN(CCCNc4cccc5sc6ccccc6c(=O)c45)CC3)c12`, the GI50 in the test on KM12, with HOP-62, in the test with T47D, in the test on COLO 205, in the test on SK-MEL-5 and with SK-OV-3 was > 100 µM (inactive) throughout. Also, the GI50 with LOX IMVI is > 100 µM (inactive); with HT-29, > 100 µM (inactive); in the test on SF-295, > 100 µM (inactive); in the test with RXF 393, > 100 µM (inactive); in the test with UACC-62, 64.7 µM (inactive); in the test with Hs-578T, 52.7 µM (inactive). The GI50 is > 100 µM (inactive) in the test on M14; > 100 µM (inactive) with NCI-H460; > 100 µM (inactive) in the test on A549; more than 100 µM with HCT-15; > 100 µM (inactive) with K562; > 100 µM (inactive) in the test on SW-620.
In the case of `CC1=NN(c2cccc(Cl)c2)C2(SCC(=O)N2c2nc3ccccc3s2)/C1=C\c1ccc(Cl)cc1` (stereo not drawn), the GI50 is 15.4 µM (inactive) in the test on KM12; 18 µM (inactive) with HOP-62; 24.8 µM (inactive) with T47D; 13.8 µM (inactive) with SK-MEL-5; 21.5 µM (inactive) in the test with SK-OV-3; 20.8 µM (inactive) in the test on LOX IMVI. In addition, the GI50 with HT-29 was 19.4 µM (inactive); in the test on HOP-92, 13.4 µM (inactive); in the test on SF-295, 17 µM (inactive); in the test on RXF 393, 20.4 µM (inactive); in the test on Hs-578T, 19.4 µM (inactive); with M14, 19.8 µM (inactive). Moreover, the GI50 was 15.8 µM (inactive) in the test with NCI-H460, 13.9 µM in the test on HCT-15, 14.4 µM (inactive) with K562 and 14.4 µM (inactive) with SW-620.
In the case of `O=c1[nH]nc(Cc2ccccc2)n1/N=C/c1c[nH]c2ccccc12`, the GI50 in the test with KM12 is > 100 µM (inactive); with HOP-62, 60.7 µM (inactive); in the test with T47D it was > 100 µM (inactive); in the test with COLO 205, > 100 µM (inactive); in the test on SK-MEL-5, > 100 µM (inactive); with SK-OV-3, 96.2 µM (inactive). For the same compound, the GI50 in the test with LOX IMVI was > 100 µM (inactive); with HT-29, 71.6 µM (inactive); in the test on HOP-92, > 100 µM (inactive); with SF-295, 27.7 µM (inactive); in the test on UACC-62, 41.6 µM (inactive); in the test with Hs-578T it was 25.4 µM (inactive). Moreover, the GI50 is > 100 µM (inactive) in the test on M14; > 100 µM (inactive) in the test on NCI-H460; 66.1 µM (inactive) with A549; more than 100 µM in the test with HCT-15; > 100 µM (inactive) in the test with K562; > 100 µM (inactive) in the test with SW-620.
Regarding `CCOC(=O)c1cc(C#N)[nH]c1-c1ccsc1`, the GI50 in the test on KM12 was 25.1 µM (inactive); in the test on HOP-62, 59.8 µM (inactive); with COLO 205, 32.2 µM (inactive); in the test on SK-MEL-5, 34.9 µM (inactive); with SK-OV-3, 43.8 µM (inactive); in the test on LOX IMVI it was 36.2 µM (inactive). In addition, the GI50 in the test with HT-29 is 28.8 µM (inactive); with HOP-92, 38.6 µM (inactive); in the test on SF-295, 38 µM (inactive); in the test on RXF 393 it was 17.3 µM (inactive); with UACC-62 it was 47.1 µM (inactive); in the test on Hs-578T, 25.7 µM (inactive). Besides, the GI50 in the test on M14 is 41.7 µM (inactive); in the test on NCI-H460 it was 32.2 µM (inactive); in the test with BT-549, 34.8 µM (inactive); in the test with A549, 31.7 µM (inactive); with HCT-15 it was 29.1 µM; in the test on K562 it was 25.6 µM (inactive). Besides, the GI50 in the test on SW-620 was 31.3 µM (inactive).
As for `O=C1C(O)=C(Cl)C(=O)c2c(O)ccc(O)c21`, the GI50 with KM12, in the test on HOP-62, in the test on T47D, with COLO 205, in the test with SK-MEL-5 and with HT-29 was > 100 µM (inactive) each time. The GI50 with HOP-92, with SF-295, in the test with RXF 393, with UACC-62, in the test with M14 and in the test with NCI-H460 was > 100 µM (inactive) in each case. Also, the GI50 with A549 was > 100 µM (inactive); with HCT-15, more than 100 µM; with K562, > 100 µM (inactive); in the test on SW-620, > 100 µM (inactive).
Regarding `CN(C)/C=N/NC(=O)/C(C#N)=C/N(C)C`, the GI50 in the test with KM12, in the test with HOP-62, in the test with T47D, with COLO 205, in the test with SK-MEL-5 and with SK-OV-3 was > 100 µM (inactive) in each case. Also, the GI50 in the test with LOX IMVI, in the test with HT-29, in the test with SF-295, in the test with RXF 393, in the test with UACC-62 and in the test on Hs-578T was > 100 µM (inactive) in each case. Also, the GI50 is > 100 µM (inactive) in the test on M14; > 100 µM (inactive) in the test on NCI-H460; > 100 µM (inactive) with A549; more than 100 µM with HCT-15; > 100 µM (inactive) with K562; > 100 µM (inactive) in the test with SW-620.
On to `CC(=O)/C=c1\[nH]/c(=C\C=C\c2ccccc2)c(=O)n1/C=C1\C(=O)Oc2ccccc2C1=O`, for which the GI50 with KM12, in the test with COLO 205, in the test with SK-MEL-5, in the test on SK-OV-3, with LOX IMVI and in the test with HT-29 was > 100 µM (inactive) in each case. Further, the GI50 in the test with HOP-92, in the test with UACC-62, in the test with Hs-578T, with M14, in the test with BT-549 and in the test on A549 was > 100 µM (inactive) throughout. For the same compound, the figures for the GI50 in the test with HCT-15, in the test on K562 and in the test with SW-620 were more than 100 µM, > 100 µM (inactive) and > 100 µM (inactive), respectively.
As to `C[C@]12CCC(=O)C=C1CC[C@@H]1[C@@H]2CC[C@]2(C)C(=O)[C@H](n3ccnc3)C[C@@H]12`, the GI50 was > 100 µM (inactive) with KM12; > 100 µM (inactive) in the test on COLO 205; 63.1 µM (inactive) with SK-MEL-5; > 100 µM (inactive) in the test with LOX IMVI; 27.4 µM (inactive) in the test on HT-29; > 100 µM (inactive) in the test with HOP-92. In addition, the GI50 in the test with SF-295, with RXF 393, in the test on UACC-62, in the test on Hs-578T, in the test with M14 and in the test with NCI-H460 was > 100 µM (inactive) each time. The GI50 with A549 was > 100 µM (inactive); with HCT-15 it was more than 100 µM; with K562 it was 75.3 µM (inactive); in the test on SW-620, > 100 µM (inactive).
`Cc1cc(C)nc(NC(P(=O)(O)O)P(=O)(O)O)n1`: the GI50 in the test with KM12, in the test on HOP-62, in the test with COLO 205, in the test on SK-MEL-5, in the test with SK-OV-3 and in the test with LOX IMVI was > 100 µM (inactive) each time. Further, the GI50 in the test with HT-29, with SF-295, with RXF 393, with UACC-62, in the test on Hs-578T and with M14 was > 100 µM (inactive) each time. The GI50 in the test on NCI-H460 was > 100 µM (inactive); in the test on BT-549, > 100 µM (inactive); with A549 it was > 100 µM (inactive); in the test on HCT-15, more than 100 µM.
For the compound `C[C@H]1[C@H](C)CC[C@]2(C)CC[C@]3(C)C(=C[C@@H](O)[C@@H]4[C@@]5(C)[C@H](O)[C@@H](O)[C@H](O)C(C)(C)[C@@H]5CC[C@]43C)[C@H]12`, the GI50 in the test on KM12 was 96.2 µM (inactive); with HOP-62, > 100 µM (inactive); in the test on COLO 205, > 100 µM (inactive); in the test on SK-MEL-5 it was > 100 µM (inactive); with SK-OV-3, > 100 µM (inactive); in the test with LOX IMVI it was > 100 µM (inactive). Also, the GI50 in the test with HT-29, in the test on SF-295, with UACC-62, in the test with Hs-578T, with M14 and with NCI-H460 was > 100 µM (inactive) throughout. Further, the GI50 with BT-549 was > 100 µM (inactive); in the test with A549, > 100 µM (inactive); in the test with HCT-15, more than 100 µM; in the test on K562, > 100 µM (inactive); with SW-620, > 100 µM (inactive).
